What all share (experiment): isothermal titration calorimetry
(In ITC the heat of successive injections is recorded.)

Experiment [1] deals with dsDNA (DNA, duplex) TTAGGGTTAGGGTTAGGGTTAGGG/CCCTAACCCTAACCCTAACCCTAA
Conditions: 100 mM NaCl or 100 mM KCl (not specified), Na+ 10 mM (Na phosphate), pH 6.5, 25°C.

For experiment [2], the system named is TelM (DNA, single strand) TTAGGGTTAGAGTTAGGGTTAGGG
Conditions: 100 mM NaCl; 10 mM Na phosphate, pH 6.5, 25°C; site 1 of 2.

In experiment [3] the test system is TelQ (DNA, G4) TTAGGGTTAGGGTTAGGGTTAGGG
The conditions noted are these: 10 mM Na phosphate, pH 6.5, 25°C.

On to `CC(=N)NCCNc1c2c(c(NCCNC(C)=N)c3sccc13)C(=O)c1ccccc1C2=O`, for which the K ass in experiment [1] is recorded as 2.2±0.1 × 10^6 M^-1; in experiment [2], 200±70 × 10^6 M^-1; in experiment [3] (100 mM KCl, text prints 1.0±0.15 × 10^7) it was 10.6±1.7 × 10^6 M^-1; in experiment [3] (100 mM NaCl), 0.9±0.1 × 10^6 M^-1.

The values are drawn from paper PMC3216923 (2011).
